“Also recorded” adds a separate entry of the source.
Columns and labels:
[1] = consumption trials of sucralose with or without MDG in a satiated animal; type: in vivo; conditions: 32 mM sucralose+0.4 M MDG vs 32 mM sucralose alone, 20 trials
Procedure: A satiated animal was given 32 mM sucralose for the first 11 trials, and then given either 32 mM sucralose alone, or 32 mM sucralose+0.4 M MDG. […] Shown are 20 trials.

[2] = tested on: activity in the cNST; test: silencing of cNST activity by cannula injection during sucrose exposure, sugar preference formation; type: in vivo
Text: When given a choice between highly concentrated artificial sweetener and a low concentration of natural sweet, animals consume the sweeter substance. However, after one exposure to natural sugar, animals switch their preference to the natural sweet (See FIG. 5). If the cNST is indeed an essential brain center for establishing sugar preference, a prediction would be that silencing the activity of the neurons in this nucleus during exposure to sugar should prevent a preference from forming. To determine if this is the case, applicants implanted a cannula above the cNST of naive animals, waited 2 weeks for recovery, and then assessed the ability of these animals to form a sugar preference. […] Prior to receiving sugar in their home cage, animals were injected with a glutamate receptor antagonist (50 nL of NBQX, […]) to reversibly silence activity in the cNST.

[3] = two-solution preference behavioral assay, artificial sweetener (AceK) versus sucrose, naive animals; type: in vivo, mice
Text: To explicitly test for sugar preference in mice, applicants developed a simple behavioral assay.
During five minute trials, two groups of five naive animals were presented with an intensely sweet, artificial compound (Acesulfame potassium or AceK) and a less sweet natural sugar (sucrose) . […] Animals were then returned to their home cage and given access to either artificial sweetener (Group 1) or natural sugar (Group 2) for one hour. […] Twenty four hours later, Group 1 was given natural sugar while Group 2 was given artificial sweetener.

[4] = tested on: neurons in the caudal nucleus of the solitary tract (cNST); test: cFos staining of the nucleus of the solitary tract after direct infusion to the gut; type: in vivo; conditions: for Fos expression in the cNST when gavaged: gavage, compared with animals drinking the same solution; for cFos labeling of cNST neurons after gut infusion: wild type animals, 0.5 mL infused directly into the gut
Procedure: Wild type animals were infused directly into the gut with 0.5 mL of water (FIG. 4A), sucrose (FIG. 4B), or artificial sweetener (FIG. 4C). […] Green: c-fos antibody staining. Magenta; a neural stain (neurotrace) (FIG. 4A-4C).

[5] = tested on: neurons in the caudal nucleus of the solitary tract (cNST); test: cFos staining of the caudal nucleus of the solitary tract after drinking the solution; type: in vivo, mice; conditions: for cFos labeling of cNST neurons: wild-type animals, water deprived thirty-six hours, 1 mL solution by drinking
Procedure: To determine where sugar preference is encoded, applicants screen brain regions for increased expression of Fos, a proxy for neural activity, in animals challenged with sugar but not water or artificial sweetener.
Wild-type animals were water deprived for thirty-six hours and then given access to 1 mL solution of water (FIG. 3A), sucrose (FIG. 3), or artificial sweetener (FIG. 3C). Tasteless (TrpM5 knockout) animals were given water (FIG. 3D) or sucrose (FIG. 3E), The caudal nucleus of the solitary tract was analyzed using cFos staining. […] Green: c-fos antibody staining. Magenta: a neural stain (neurotrace) (FIG. 3A-3D).

## COC1OC(CO)C(O)C(O)C1O [MDG, Alpha-Methyl-D-Glucopyranose]
[1]
  appetitiveness/consumption of sucralose: dramatically increases the appetitiveness/consumption of sucralose; also recorded: transforms a sucralose solution into the preferred Artificial Sweetener

## NS(=O)(=O)c1cccc2c1c([N+](=O)[O-])cc1nc(O)c(O)nc12 [NBQX]
[2]; 50 nL of NBQX, 5 pg/mL, injected above the cNST prior to sugar in home cage, tested twenty-four hours later
  formation of sugar preference with the cNST silenced: continued to prefer the artificial sweetener
[2]; after the drug washed out
  sugar preference formation after washout: regained their ability to form a preference
[2]; short-access assays, same animals
  effect of silencing on sweet taste: does not abolish sweet taste

## CC1=CC(=O)NS(=O)(=O)O1 [AceK, Acesulfame potassium]
[3]; five minute trials, naive animals, before home-cage exposure
  initial consumption, AceK versus sucrose: much more AceK than sucrose
[4]
  Fos expression in the cNST when gavaged: identical
  cFos labeling of cNST neurons after gut infusion: almost no labeled cells at all
[5]
  cFos labeling of cNST neurons: almost no labeled cells at all

## OC[C@H]1O[C@@](CO)(O[C@H]2O[C@H](CO)[C@@H](O)[C@H](O)[C@H]2O)[C@@H](O)[C@@H]1O [sucrose]
[3]; after one hour home-cage access to natural sugar, final preference test
  preference between artificial sweetener and sucrose after exposure to sucrose: animals change preference between artificial sweetener and sucrose after one exposure to sucrose; also recorded: both groups prefer the natural sugar
[4]
  Fos expression in the cNST when gavaged: identical
  cFos labeling of cNST neurons after gut infusion: robustly labeled
[5]; TrpM5 knockout animals, compared with wild type
  cFos labeling of cNST neurons in tasteless animals: identical pattern of labeling
[5]
  cFos labeling of cNST neurons: robustly labeled

Reference: patent US20170281772A1, “A NEURAL SUBSTRATE FOR SUGAR PREFERENCE” (The Trustees of Columbia University in the City of New York, priority 2014, published 2017)
